Measurements from the NIST ThermoML archive (doi:10.1021/je400055v).

Experiment: xn = mol fraction of the nth substance listed
Settings: Liquid, Vibrating tube method

CCCCCCCCCCC [undecane] + CCCCCCC
Settings | mass density [kg/m3]
342.97 K, 1001 kPa, x2 = 0.9511 | 645.7
342.97 K, 2000 kPa, x2 = 0.9511 | 647
342.97 K, 3000 kPa, x2 = 0.9511 | 648.4
342.97 K, 4000 kPa, x2 = 0.9511 | 649.7
342.97 K, 5000 kPa, x2 = 0.9511 | 650.9
342.97 K, 6000 kPa, x2 = 0.9511 | 652.2
342.97 K, 7000 kPa, x2 = 0.9511 | 653.4
342.97 K, 8000 kPa, x2 = 0.9511 | 654.6
342.97 K, 9000 kPa, x2 = 0.9511 | 655.8
342.97 K, 10000 kPa, x2 = 0.9511 | 657
342.97 K, 11000 kPa, x2 = 0.9511 | 658.1
342.97 K, 12000 kPa, x2 = 0.9511 | 659.2
342.97 K, 13000 kPa, x2 = 0.9511 | 660.3
342.97 K, 14001 kPa, x2 = 0.9511 | 661.4
342.97 K, 15001 kPa, x2 = 0.9511 | 662.5
342.97 K, 16000 kPa, x2 = 0.9511 | 663.5
342.97 K, 17001 kPa, x2 = 0.9511 | 664.5
342.97 K, 18001 kPa, x2 = 0.9511 | 665.6
342.97 K, 19000 kPa, x2 = 0.9511 | 666.6
342.97 K, 20000 kPa, x2 = 0.9511 | 667.5
342.97 K, 21001 kPa, x2 = 0.9511 | 668.5
342.97 K, 22000 kPa, x2 = 0.9511 | 669.4
342.97 K, 23001 kPa, x2 = 0.9511 | 670.4
342.97 K, 24000 kPa, x2 = 0.9511 | 671.3
342.97 K, 25000 kPa, x2 = 0.9511 | 672.2
343.01 K, 2001 kPa, x2 = 0.5063 | 680.1
343.01 K, 3000 kPa, x2 = 0.5063 | 681.2
343.01 K, 4000 kPa, x2 = 0.5063 | 682.3
343.01 K, 5000 kPa, x2 = 0.5063 | 683.4
343.01 K, 6000 kPa, x2 = 0.5063 | 684.5
343.01 K, 7000 kPa, x2 = 0.5063 | 685.5
343.01 K, 8001 kPa, x2 = 0.5063 | 686.5
343.01 K, 9000 kPa, x2 = 0.5063 | 687.6
343.01 K, 10000 kPa, x2 = 0.5063 | 688.6
343.01 K, 11000 kPa, x2 = 0.5063 | 689.5
343.01 K, 12000 kPa, x2 = 0.5063 | 690.5
343.01 K, 13000 kPa, x2 = 0.5063 | 691.5
343.01 K, 14000 kPa, x2 = 0.5063 | 692.4
343.01 K, 15000 kPa, x2 = 0.5063 | 693.4
343.01 K, 16000 kPa, x2 = 0.5063 | 694.3
343.01 K, 17001 kPa, x2 = 0.5063 | 695.2
343.01 K, 18000 kPa, x2 = 0.5063 | 696.1
343.01 K, 19000 kPa, x2 = 0.5063 | 697
343.01 K, 20000 kPa, x2 = 0.5063 | 697.8
343.01 K, 21001 kPa, x2 = 0.5063 | 698.7
343.01 K, 22050 kPa, x2 = 0.5063 | 699.5
343.01 K, 23000 kPa, x2 = 0.5063 | 700.4
343.01 K, 24000 kPa, x2 = 0.5063 | 701.2
343.01 K, 25000 kPa, x2 = 0.5063 | 702
343.02 K, 1001 kPa, x2 = 0.05 | 701.5
343.02 K, 2001 kPa, x2 = 0.05 | 702.5
343.02 K, 3000 kPa, x2 = 0.05 | 703.6
343.02 K, 4000 kPa, x2 = 0.05 | 704.6
343.02 K, 5000 kPa, x2 = 0.05 | 705.5
343.02 K, 6000 kPa, x2 = 0.05 | 706.5
343.02 K, 7000 kPa, x2 = 0.05 | 707.5
343.02 K, 8001 kPa, x2 = 0.05 | 708.4
343.02 K, 9000 kPa, x2 = 0.05 | 709.3
343.02 K, 10000 kPa, x2 = 0.05 | 710.2
343.02 K, 11000 kPa, x2 = 0.05 | 711.1
343.02 K, 12000 kPa, x2 = 0.05 | 712
343.02 K, 13000 kPa, x2 = 0.05 | 712.9
343.02 K, 14000 kPa, x2 = 0.05 | 713.8
343.02 K, 15000 kPa, x2 = 0.05 | 714.6
343.02 K, 16000 kPa, x2 = 0.05 | 715.5
343.02 K, 17000 kPa, x2 = 0.05 | 716.3
343.02 K, 18000 kPa, x2 = 0.05 | 717.1
343.02 K, 19000 kPa, x2 = 0.05 | 717.9
343.02 K, 20000 kPa, x2 = 0.05 | 718.7
343.02 K, 21000 kPa, x2 = 0.05 | 719.5
343.02 K, 22001 kPa, x2 = 0.05 | 720.3
343.02 K, 23000 kPa, x2 = 0.05 | 721.1
343.02 K, 24000 kPa, x2 = 0.05 | 721.8
343.02 K, 25000 kPa, x2 = 0.05 | 722.6
343.03 K, 1000 kPa, x2 = 0.7482 | 662.4
343.03 K, 2000 kPa, x2 = 0.7482 | 663.6
343.03 K, 3000 kPa, x2 = 0.7482 | 664.9
343.03 K, 4000 kPa, x2 = 0.7482 | 666.1
343.03 K, 5000 kPa, x2 = 0.7482 | 667.2
343.03 K, 6000 kPa, x2 = 0.7482 | 668.4
343.03 K, 7000 kPa, x2 = 0.7482 | 669.5
343.03 K, 8000 kPa, x2 = 0.7482 | 670.6
343.03 K, 9000 kPa, x2 = 0.7482 | 671.7
343.03 K, 10000 kPa, x2 = 0.7482 | 672.8
343.03 K, 11000 kPa, x2 = 0.7482 | 673.9
343.03 K, 12000 kPa, x2 = 0.7482 | 674.9
343.03 K, 13000 kPa, x2 = 0.7482 | 675.9
343.03 K, 14000 kPa, x2 = 0.7482 | 677
343.03 K, 15000 kPa, x2 = 0.7482 | 678
343.03 K, 16000 kPa, x2 = 0.7482 | 678.9
343.03 K, 17000 kPa, x2 = 0.7482 | 679.9
343.03 K, 18000 kPa, x2 = 0.7482 | 680.8
343.03 K, 19000 kPa, x2 = 0.7482 | 681.8
